# Test results as given in patent publication US20240423992A1, “BIOMARKERS FOR TREATING LIVER DISORDERS WITH THR-B AGONISTS AND RELATED USES” (Madrigal Pharmaceuticals, Inc., priority 2023, published 2024).
# Legend:
# [1] = system: adults with nonalcoholic fatty liver disease (NAFLD)/presumed nonalcoholic steatohepatitis (NASH); assay: 52-week Phase 3 trial (Example 1): thyroid hormone levels; type: in vivo, human; settings: for FT3 (not on thyroxine) LSM Difference / FT3 (thyroxine-treated) LSM Difference / FT3/rT3 (not on thyroxine) LSM Difference / FT3/rT3 (thyroxine-treated) LSM Difference / FT3/rT3 LSM Difference / FT3 LSM Difference / FT4 (not on thyroxine) LSM Difference in % CFB / FT4 (not on thyroxine) LSM Difference in CFB / FT4 (thyroxine-treated) LSM Difference in % CFB / FT4 (thyroxine-treated) LSM Difference in CFB / FT4 LSM Difference in % CFB / FT4 LSM Difference in CFB / TBG (not on thyroxine) LSM Difference / TBG (thyroxine-treated) LSM Difference / TBG LSM Difference / TSH (not on thyroxine) LSM Difference / TSH (thyroxine-treated) LSM Difference / TSH LSM Difference / rT3 (not on thyroxine) LSM Difference / rT3 (thyroxine-treated) LSM Difference / rT3 LSM Difference / FT3 (not on thyroxine) LSM CFB / FT3 (thyroxine-treated) LSM CFB / FT3/rT3 (not on thyroxine) LSM CFB / FT3/rT3 (thyroxine-treated) LSM CFB / FT3/rT3 LSM CFB / FT3 LSM CFB / FT4 (not on thyroxine) LSM % CFB / FT4 (not on thyroxine) LSM CFB / FT4 (thyroxine-treated) LSM % CFB / FT4 (thyroxine-treated) LSM CFB / FT4 LSM % CFB / FT4 LSM CFB / TBG (not on thyroxine) LSM CFB / TBG (thyroxine-treated) LSM CFB / TBG LSM CFB / TSH (not on thyroxine) LSM CFB / TSH (thyroxine-treated) LSM CFB / TSH LSM CFB / rT3 (not on thyroxine) LSM CFB / rT3 (thyroxine-treated) LSM CFB / rT3 LSM CFB: Week 52
# Description: A 52-week randomized, double-blind, placebo-controlled Phase 3 trial was conducted to evaluate the safety and effect of resmetirom, an oral, once-daily, liver-targeted thyroid hormone receptor-β selective agonist, on multiple biomarkers in adults with nonalcoholic fatty liver disease (NAFLD)/presumed nonalcoholic steatohepatitis (NASH). Patients were randomized to three double-blind arms (100 mg resmetirom, 80 mg resmetirom, or placebo) or one open-label arm (100 mg resmetirom). Common concomitant medications across the 4 arms were antidiabetes drugs (such as glucagon-like peptide-1 receptor agonists (GLP-1 RAs), metformin, pioglitazone, and sodium/glucose cotransporter-2 inhibitors (SGLT2i)) and drugs to manage dyslipidemia (statins).
# Sex hormone levels after 52 weeks of resmetirom treatment are shown in Table A. Thyroid hormone levels after 52 weeks of resmetirom treatment are reported in Table B.
# [2] = system: patients with Nonalcoholic Steatohepatitis; assay: Phase 3 trial in Nonalcoholic Steatohepatitis (Example 2): NASH resolution and fibrosis improvement on biopsy; type: in vivo, human
# Description: A randomized, double-blind, placebo-controlled Phase 3 trial was conducted. Patients were randomly assigned to receive resmetirom 80 mg, resmetirom 100 mg, or placebo administered orally once daily. Screening biopsy results were used as baseline for histologic variables and a second biopsy was performed at Week 52.
# [3] = Resmetirom 80 mg DB vs Placebo DB
# [4] = Resmetirom 100 mg DB vs Placebo DB
smiles,measurement,setting,value
"CC(C)c1cc(Oc2c(Cl)cc(-n3nc(C#N)c(=O)[nH]c3=O)cc2Cl)n[nH]c1=O [Resmetirom, 2-[3,5-dichloro-4-[(6-oxo-5-propan-2-yl-1H-pyridazin-3-yl)oxy]phenyl]-3,5-dioxo-1,2,4-triazine-6-carbonitrile]",FT3 (not on thyroxine) LSM Difference,[1]; [3],0.1 ng/L
same,FT3 (thyroxine-treated) LSM Difference,[1]; [3],0.0 ng/L
same,FT3/rT3 (not on thyroxine) LSM Difference,[1]; [3],0.05
same,FT3/rT3 (thyroxine-treated) LSM Difference,[1]; [3],0.03
same,FT3/rT3 LSM Difference,[1]; [3],0.05
same,FT3 LSM Difference,[1]; [3],0.1 ng/L
same,FT4 (not on thyroxine) LSM Difference in % CFB,[1]; [3],−11.0%
same,FT4 (not on thyroxine) LSM Difference in CFB,[1]; [3],-0.1 ng/dL
same,FT4 (thyroxine-treated) LSM Difference in % CFB,[1]; [3],−10.2%
same,FT4 (thyroxine-treated) LSM Difference in CFB,[1]; [3],-0.1 ng/dL
same,FT4 LSM Difference in % CFB,[1]; [3],−10.8%
same,FT4 LSM Difference in CFB,[1]; [3],-0.1 ng/dL
same,TBG (not on thyroxine) LSM Difference,[1]; [3],-1.2 mg/L
same,TBG (thyroxine-treated) LSM Difference,[1]; [3],-0.6 mg/L
same,TBG LSM Difference,[1]; [3],-1.1 mg/L
same,TSH (not on thyroxine) LSM Difference,[1]; [3],0.0 mIU/L
same,TSH (thyroxine-treated) LSM Difference,[1]; [3],−0.3 mIU/L
same,TSH LSM Difference,[1]; [3],−0.0 mIU/L
same,rT3 (not on thyroxine) LSM Difference,[1]; [3],-3.3 ng/dL
same,rT3 (thyroxine-treated) LSM Difference,[1]; [3],-4.4 ng/dL
same,rT3 LSM Difference,[1]; [3],-3.4 ng/dL
same,FT3 (not on thyroxine) LSM CFB,[1]; Resmetirom 80 mg DB,-0.1 ng/L
same,FT3 (thyroxine-treated) LSM CFB,[1]; Resmetirom 80 mg DB,0.0 ng/L
same,FT3/rT3 (not on thyroxine) LSM CFB,[1]; Resmetirom 80 mg DB,0.04
same,FT3/rT3 (thyroxine-treated) LSM CFB,[1]; Resmetirom 80 mg DB,0.03
same,FT3/rT3 LSM CFB,[1]; Resmetirom 80 mg DB,0.04
same,FT3 LSM CFB,[1]; Resmetirom 80 mg DB,-0.0 ng/L
same,FT4 (not on thyroxine) LSM % CFB,[1]; Resmetirom 80 mg DB,−9.9%
same,FT4 (not on thyroxine) LSM CFB,[1]; Resmetirom 80 mg DB,-0.1 ng/dL
same,FT4 (thyroxine-treated) LSM % CFB,[1]; Resmetirom 80 mg DB,−6.4%
same,FT4 (thyroxine-treated) LSM CFB,[1]; Resmetirom 80 mg DB,-0.1 ng/dL
same,FT4 LSM % CFB,[1]; Resmetirom 80 mg DB,−9.6%
same,FT4 LSM CFB,[1]; Resmetirom 80 mg DB,-0.1 ng/dL
same,TBG (not on thyroxine) LSM CFB,[1]; Resmetirom 80 mg DB,-0.5 mg/L
same,TBG (thyroxine-treated) LSM CFB,[1]; Resmetirom 80 mg DB,1.5 mg/L
same,TBG LSM CFB,[1]; Resmetirom 80 mg DB,0.6 mg/L
same,TSH (not on thyroxine) LSM CFB,[1]; Resmetirom 80 mg DB,−0.3 mIU/L
same,TSH (thyroxine-treated) LSM CFB,[1]; Resmetirom 80 mg DB,−0.9 mIU/L
same,TSH LSM CFB,[1]; Resmetirom 80 mg DB,−0.4 mIU/L
same,rT3 (not on thyroxine) LSM CFB,[1]; Resmetirom 80 mg DB,-2.5 ng/dL
same,rT3 (thyroxine-treated) LSM CFB,[1]; Resmetirom 80 mg DB,-3.8 ng/dL
same,rT3 LSM CFB,[1]; Resmetirom 80 mg DB,-2.7 ng/dL
same,FT3 (not on thyroxine) LSM Difference,[1]; [4],0.0 ng/L
same,FT3 (thyroxine-treated) LSM Difference,[1]; [4],-0.0 ng/L
same,FT3/rT3 (not on thyroxine) LSM Difference,[1]; [4],0.05
same,FT3/rT3 (thyroxine-treated) LSM Difference,[1]; [4],0.04
same,FT3/rT3 LSM Difference,[1]; [4],0.05
same,FT3 LSM Difference,[1]; [4],0.0 ng/L
same,FT4 (not on thyroxine) LSM Difference in % CFB,[1]; [4],−15.4%
same,FT4 (not on thyroxine) LSM Difference in CFB,[1]; [4],-0.2 ng/dL
same,FT4 (thyroxine-treated) LSM Difference in % CFB,[1]; [4],−23.0%
same,FT4 (thyroxine-treated) LSM Difference in CFB,[1]; [4],-0.3 ng/dL
same,FT4 LSM Difference in % CFB,[1]; [4],−16.1%
same,FT4 LSM Difference in CFB,[1]; [4],-0.2 ng/dL
same,TBG (not on thyroxine) LSM Difference,[1]; [4],-0.3 mg/L
same,TBG (thyroxine-treated) LSM Difference,[1]; [4],-2.4 mg/L
same,TBG LSM Difference,[1]; [4],-0.5 mg/L
same,TSH (not on thyroxine) LSM Difference,[1]; [4],−0.1 mIU/L
same,TSH (thyroxine-treated) LSM Difference,[1]; [4],0.0 mIU/L
same,TSH LSM Difference,[1]; [4],−0.1 mIU/L
same,rT3 (not on thyroxine) LSM Difference,[1]; [4],-3.8 ng/dL
same,rT3 (thyroxine-treated) LSM Difference,[1]; [4],-5.5 ng/dL
same,rT3 LSM Difference,[1]; [4],-3.9 ng/dL
same,FT3 (not on thyroxine) LSM CFB,[1]; Resmetirom 100 mg DB,-0.1 ng/L
same,FT3 (thyroxine-treated) LSM CFB,[1]; Resmetirom 100 mg DB,-0.0 ng/L
same,FT3/rT3 (not on thyroxine) LSM CFB,[1]; Resmetirom 100 mg DB,0.04
same,FT3/rT3 (thyroxine-treated) LSM CFB,[1]; Resmetirom 100 mg DB,0.04
same,FT3/rT3 LSM CFB,[1]; Resmetirom 100 mg DB,0.04
same,FT3 LSM CFB,[1]; Resmetirom 100 mg DB,-0.1 ng/L
same,FT4 (not on thyroxine) LSM % CFB,[1]; Resmetirom 100 mg DB,−14.3%
same,FT4 (not on thyroxine) LSM CFB,[1]; Resmetirom 100 mg DB,-0.2 ng/dL
same,FT4 (thyroxine-treated) LSM % CFB,[1]; Resmetirom 100 mg DB,−19.2%
same,FT4 (thyroxine-treated) LSM CFB,[1]; Resmetirom 100 mg DB,-0.2 ng/dL
same,FT4 LSM % CFB,[1]; Resmetirom 100 mg DB,−14.9%
same,FT4 LSM CFB,[1]; Resmetirom 100 mg DB,-0.2 ng/dL
same,TBG (not on thyroxine) LSM CFB,[1]; Resmetirom 100 mg DB,1.4 mg/L
same,TBG (thyroxine-treated) LSM CFB,[1]; Resmetirom 100 mg DB,-0.2 mg/L
same,TBG LSM CFB,[1]; Resmetirom 100 mg DB,1.1 mg/L
same,TSH (not on thyroxine) LSM CFB,[1]; Resmetirom 100 mg DB,−0.3 mIU/L
same,TSH (thyroxine-treated) LSM CFB,[1]; Resmetirom 100 mg DB,−0.6 mIU/L
same,TSH LSM CFB,[1]; Resmetirom 100 mg DB,−0.4 mIU/L
same,rT3 (not on thyroxine) LSM CFB,[1]; Resmetirom 100 mg DB,-2.9 ng/dL
same,rT3 (thyroxine-treated) LSM CFB,[1]; Resmetirom 100 mg DB,-4.9 ng/dL
same,rT3 LSM CFB,[1]; Resmetirom 100 mg DB,-3.2 ng/dL
same,FT3 (not on thyroxine) LSM CFB,[1]; Resmetirom 100 mg OL,-0.1 ng/L
same,FT3 (thyroxine-treated) LSM CFB,[1]; Resmetirom 100 mg OL,-0.1 ng/L
same,FT3/rT3 (not on thyroxine) LSM CFB,[1]; Resmetirom 100 mg OL,0.05
same,FT3/rT3 (thyroxine-treated) LSM CFB,[1]; Resmetirom 100 mg OL,0.03
same,FT3/rT3 LSM CFB,[1]; Resmetirom 100 mg OL,0.04
same,FT3 LSM CFB,[1]; Resmetirom 100 mg OL,-0.2 ng/L
same,FT4 (not on thyroxine) LSM % CFB,[1]; Resmetirom 100 mg OL,−18.9%
same,FT4 (not on thyroxine) LSM CFB,[1]; Resmetirom 100 mg OL,-0.2 ng/dL
same,FT4 (thyroxine-treated) LSM % CFB,[1]; Resmetirom 100 mg OL,−14.8%
same,FT4 (thyroxine-treated) LSM CFB,[1]; Resmetirom 100 mg OL,-0.2 ng/dL
same,FT4 LSM % CFB,[1]; Resmetirom 100 mg OL,−16.1%
same,FT4 LSM CFB,[1]; Resmetirom 100 mg OL,-0.2 ng/dL
same,TBG (not on thyroxine) LSM CFB,[1]; Resmetirom 100 mg OL,0.7 mg/L
same,TBG (thyroxine-treated) LSM CFB,[1]; Resmetirom 100 mg OL,-1.0 mg/L
same,TBG LSM CFB,[1]; Resmetirom 100 mg OL,0.1 mg/L
same,TSH (not on thyroxine) LSM CFB,[1]; Resmetirom 100 mg OL,−0.2 mIU/L
same,TSH (thyroxine-treated) LSM CFB,[1]; Resmetirom 100 mg OL,0.4 mIU/L
same,TSH LSM CFB,[1]; Resmetirom 100 mg OL,0.2 mIU/L
same,rT3 (not on thyroxine) LSM CFB,[1]; Resmetirom 100 mg OL,-3.5 ng/dL
same,rT3 (thyroxine-treated) LSM CFB,[1]; Resmetirom 100 mg OL,-3.9 ng/dL
same,rT3 LSM CFB,[1]; Resmetirom 100 mg OL,-3.3 ng/dL
same,effect on active hormone free triiodothyronine (FT3),[1]; resmetirom arms,No effects
same,effect on thyroid-stimulating hormone (TSH),[1]; resmetirom arms,No effects
same,"prohormone FT4 levels, change from baseline",[1]; resmetirom arms,Minimal reductions from baseline
same,"NASH resolution / fibrosis improvement, 100 mg compared with 80 mg","[2]; 100 mg resmetirom group, except in patients ≥65 years",generally outperformed the 80 mg group
same,patients achieving NASH resolution or fibrosis improvement compared with placebo,"[2]; Week 52 biopsy, across subgroups",significantly more resmetirom-treated patients achieving either NASH resolution or fibrosis improvement
same,"response at both endpoints (NASH resolution, fibrosis improvement) by subgroup",[2]; patients with ≥30% liver fat reduction or SHBG increase ≥120%,greater response
